Reference: PMC4286194 (Biochemical Journal, 2015)

Experiments:
[1] = test system: Bone-marrow-derived macrophages; experiment: CREB-dependent gene transcription (qPCR); assay type: cell-based, mouse; details: 3 μM bosutinib or 0.3 μM dasatinib; LPS or Pam3CSK4
Description: mRNA was extracted from cells using the MicroElute Total RNA kit following the manufacturers’ instructions (Omega Bio-Tek). cDNA was generated from 0.5 μg of total RNA using the iScript cDNA synthesis kit and quantified by quantitative real-time PCR (qPCR) using the SsoFast EvaGreen Supermix on a CFX384 real-time system (Bio-Rad Laboratories). The relative expression of each gene was calculated from CT values using the Pfaffl method and was normalized against the mRNA levels of housekeeping genes including 18S RNA and GAPDH. Results are reported relative to untreated control cells, which were set to 1.

ERK5 = ERK5 (Homo sapiens, UniProt Q13164); experiment: Kinase profiling; assay type: biochemical
HIPK1 = HIPK1 (Homo sapiens, UniProt Q86Z02); experiment: Kinase profiling; assay type: biochemical
IRAK4 = biological target: T1, IRAK4 (Homo sapiens, UniProt Q9NWZ3); experiment: Kinase profiling; assay type: biochemical
T1 sequence (Q9NWZ3 1-460): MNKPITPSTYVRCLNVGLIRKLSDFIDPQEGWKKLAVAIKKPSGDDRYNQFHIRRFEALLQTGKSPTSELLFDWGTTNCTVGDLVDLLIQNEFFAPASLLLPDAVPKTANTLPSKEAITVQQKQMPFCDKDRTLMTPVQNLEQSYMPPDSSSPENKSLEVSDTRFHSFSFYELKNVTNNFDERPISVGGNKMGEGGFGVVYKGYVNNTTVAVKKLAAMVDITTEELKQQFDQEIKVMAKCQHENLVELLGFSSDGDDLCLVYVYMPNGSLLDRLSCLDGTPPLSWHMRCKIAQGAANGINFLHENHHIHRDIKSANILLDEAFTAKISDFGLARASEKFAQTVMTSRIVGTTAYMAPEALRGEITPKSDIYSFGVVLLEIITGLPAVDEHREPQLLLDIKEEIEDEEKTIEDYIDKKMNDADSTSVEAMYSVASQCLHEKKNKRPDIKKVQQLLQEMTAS

LKB1 = biological target: T2, LKB1 (Homo sapiens, UniProt Q15831); experiment: Kinase profiling; assay type: biochemical
T2 sequence (Q15831 1-433): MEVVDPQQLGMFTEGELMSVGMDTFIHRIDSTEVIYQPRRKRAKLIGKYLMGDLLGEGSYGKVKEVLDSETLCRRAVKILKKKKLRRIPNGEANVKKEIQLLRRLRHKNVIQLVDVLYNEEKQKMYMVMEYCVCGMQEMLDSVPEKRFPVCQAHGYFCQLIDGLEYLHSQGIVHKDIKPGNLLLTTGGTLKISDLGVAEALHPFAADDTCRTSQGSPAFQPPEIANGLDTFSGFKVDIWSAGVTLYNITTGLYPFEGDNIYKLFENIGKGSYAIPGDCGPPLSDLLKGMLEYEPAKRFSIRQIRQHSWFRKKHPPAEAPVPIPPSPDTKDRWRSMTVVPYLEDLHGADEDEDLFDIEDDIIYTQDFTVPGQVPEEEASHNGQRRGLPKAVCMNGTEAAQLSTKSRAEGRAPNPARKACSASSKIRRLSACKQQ
T2 sequence (Q7RTN6 1-431 partner): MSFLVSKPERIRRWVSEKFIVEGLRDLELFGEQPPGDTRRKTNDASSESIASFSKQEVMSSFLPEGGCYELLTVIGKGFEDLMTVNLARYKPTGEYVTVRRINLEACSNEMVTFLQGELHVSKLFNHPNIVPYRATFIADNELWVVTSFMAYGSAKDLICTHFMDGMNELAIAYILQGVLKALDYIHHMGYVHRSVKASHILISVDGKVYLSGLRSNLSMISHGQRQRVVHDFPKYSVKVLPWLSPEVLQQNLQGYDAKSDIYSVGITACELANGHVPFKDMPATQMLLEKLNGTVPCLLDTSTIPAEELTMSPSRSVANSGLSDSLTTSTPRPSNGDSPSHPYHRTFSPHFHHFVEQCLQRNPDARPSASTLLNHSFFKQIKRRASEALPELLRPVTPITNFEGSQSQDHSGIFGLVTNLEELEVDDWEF
T2 sequence (Q9Y376 1-341 partner): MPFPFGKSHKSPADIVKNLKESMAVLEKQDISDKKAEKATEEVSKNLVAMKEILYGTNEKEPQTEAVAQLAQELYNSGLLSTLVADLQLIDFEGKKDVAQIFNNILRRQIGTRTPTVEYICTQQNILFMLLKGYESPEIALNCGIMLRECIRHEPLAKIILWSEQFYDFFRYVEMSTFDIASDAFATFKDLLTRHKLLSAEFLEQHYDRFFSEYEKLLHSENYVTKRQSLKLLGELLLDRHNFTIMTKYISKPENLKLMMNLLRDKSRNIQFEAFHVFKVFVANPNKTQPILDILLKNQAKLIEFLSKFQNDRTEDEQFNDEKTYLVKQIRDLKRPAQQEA

MARK1 = MARK1 (Homo sapiens, UniProt Q9P0L2); experiment: Kinase profiling; assay type: biochemical
MINK1 = MINK1 (Homo sapiens, UniProt Q8N4C8); experiment: Kinase profiling; assay type: biochemical
PRAK = biological target: T3, PRAK (Homo sapiens, UniProt Q8IW41); experiment: Kinase profiling; assay type: biochemical
T3 sequence (Q8IW41 1-473): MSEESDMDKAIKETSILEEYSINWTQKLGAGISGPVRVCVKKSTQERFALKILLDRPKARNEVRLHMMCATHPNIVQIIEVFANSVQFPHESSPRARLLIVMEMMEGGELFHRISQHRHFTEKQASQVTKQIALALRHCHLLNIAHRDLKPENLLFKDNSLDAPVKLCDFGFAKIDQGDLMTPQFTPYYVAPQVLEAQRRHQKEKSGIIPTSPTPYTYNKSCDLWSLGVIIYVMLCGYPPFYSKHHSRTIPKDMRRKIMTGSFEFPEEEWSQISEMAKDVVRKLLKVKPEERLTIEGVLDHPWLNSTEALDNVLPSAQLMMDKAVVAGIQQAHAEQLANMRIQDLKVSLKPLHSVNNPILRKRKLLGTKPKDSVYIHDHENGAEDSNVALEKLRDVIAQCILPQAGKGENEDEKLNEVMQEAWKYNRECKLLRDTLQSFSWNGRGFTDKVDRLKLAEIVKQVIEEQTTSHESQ

SIK2 = SIK2 (Homo sapiens, UniProt Q9H0K1); experiment: Kinase profiling; assay type: biochemical
Chain of SIK2 (Q9H0K1 whole entry): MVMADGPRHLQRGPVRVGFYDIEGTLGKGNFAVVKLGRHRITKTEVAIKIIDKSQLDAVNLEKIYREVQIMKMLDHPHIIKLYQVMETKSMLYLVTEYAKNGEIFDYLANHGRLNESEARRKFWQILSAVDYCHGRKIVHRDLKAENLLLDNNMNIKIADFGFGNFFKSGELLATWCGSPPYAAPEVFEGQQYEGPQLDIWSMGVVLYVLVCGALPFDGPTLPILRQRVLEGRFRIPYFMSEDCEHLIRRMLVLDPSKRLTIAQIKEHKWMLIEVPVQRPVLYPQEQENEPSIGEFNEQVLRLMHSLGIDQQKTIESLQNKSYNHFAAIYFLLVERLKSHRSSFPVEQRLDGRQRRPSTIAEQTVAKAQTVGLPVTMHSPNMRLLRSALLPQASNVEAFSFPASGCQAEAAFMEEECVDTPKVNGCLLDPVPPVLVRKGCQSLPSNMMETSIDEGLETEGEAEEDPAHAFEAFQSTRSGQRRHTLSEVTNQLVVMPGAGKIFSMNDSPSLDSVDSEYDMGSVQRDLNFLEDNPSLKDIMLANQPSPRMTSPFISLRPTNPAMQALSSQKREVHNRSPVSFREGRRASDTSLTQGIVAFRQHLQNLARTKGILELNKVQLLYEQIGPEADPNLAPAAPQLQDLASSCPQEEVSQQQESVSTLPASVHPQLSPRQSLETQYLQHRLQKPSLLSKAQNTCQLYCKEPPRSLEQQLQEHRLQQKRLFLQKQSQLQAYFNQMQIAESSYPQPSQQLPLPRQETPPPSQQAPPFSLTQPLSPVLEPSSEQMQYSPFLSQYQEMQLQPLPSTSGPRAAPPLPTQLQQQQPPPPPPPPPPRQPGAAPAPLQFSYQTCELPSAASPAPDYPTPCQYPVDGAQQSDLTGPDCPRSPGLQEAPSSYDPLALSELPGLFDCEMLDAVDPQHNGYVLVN

Chain of MARK1 (Q9P0L2 whole entry): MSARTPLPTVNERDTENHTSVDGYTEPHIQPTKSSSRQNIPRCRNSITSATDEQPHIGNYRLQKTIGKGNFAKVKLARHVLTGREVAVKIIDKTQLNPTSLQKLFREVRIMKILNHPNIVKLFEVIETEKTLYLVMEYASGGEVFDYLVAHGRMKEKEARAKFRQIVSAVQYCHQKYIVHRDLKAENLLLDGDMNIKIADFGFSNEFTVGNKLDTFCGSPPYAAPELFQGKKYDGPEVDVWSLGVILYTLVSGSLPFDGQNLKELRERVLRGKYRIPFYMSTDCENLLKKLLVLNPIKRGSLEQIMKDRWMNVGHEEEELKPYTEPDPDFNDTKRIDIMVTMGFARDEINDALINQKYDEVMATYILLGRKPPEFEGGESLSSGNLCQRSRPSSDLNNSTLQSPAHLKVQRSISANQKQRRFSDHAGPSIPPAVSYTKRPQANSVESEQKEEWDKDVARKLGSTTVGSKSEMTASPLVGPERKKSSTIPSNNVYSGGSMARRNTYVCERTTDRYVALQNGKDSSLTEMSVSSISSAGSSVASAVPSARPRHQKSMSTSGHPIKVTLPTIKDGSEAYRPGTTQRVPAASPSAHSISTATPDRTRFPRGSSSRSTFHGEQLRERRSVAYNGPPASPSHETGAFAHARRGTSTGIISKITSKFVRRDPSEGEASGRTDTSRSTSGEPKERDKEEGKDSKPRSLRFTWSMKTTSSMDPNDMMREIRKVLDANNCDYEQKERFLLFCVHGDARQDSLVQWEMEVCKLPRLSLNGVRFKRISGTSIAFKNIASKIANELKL
Chain of ERK5 (Q13164 whole entry): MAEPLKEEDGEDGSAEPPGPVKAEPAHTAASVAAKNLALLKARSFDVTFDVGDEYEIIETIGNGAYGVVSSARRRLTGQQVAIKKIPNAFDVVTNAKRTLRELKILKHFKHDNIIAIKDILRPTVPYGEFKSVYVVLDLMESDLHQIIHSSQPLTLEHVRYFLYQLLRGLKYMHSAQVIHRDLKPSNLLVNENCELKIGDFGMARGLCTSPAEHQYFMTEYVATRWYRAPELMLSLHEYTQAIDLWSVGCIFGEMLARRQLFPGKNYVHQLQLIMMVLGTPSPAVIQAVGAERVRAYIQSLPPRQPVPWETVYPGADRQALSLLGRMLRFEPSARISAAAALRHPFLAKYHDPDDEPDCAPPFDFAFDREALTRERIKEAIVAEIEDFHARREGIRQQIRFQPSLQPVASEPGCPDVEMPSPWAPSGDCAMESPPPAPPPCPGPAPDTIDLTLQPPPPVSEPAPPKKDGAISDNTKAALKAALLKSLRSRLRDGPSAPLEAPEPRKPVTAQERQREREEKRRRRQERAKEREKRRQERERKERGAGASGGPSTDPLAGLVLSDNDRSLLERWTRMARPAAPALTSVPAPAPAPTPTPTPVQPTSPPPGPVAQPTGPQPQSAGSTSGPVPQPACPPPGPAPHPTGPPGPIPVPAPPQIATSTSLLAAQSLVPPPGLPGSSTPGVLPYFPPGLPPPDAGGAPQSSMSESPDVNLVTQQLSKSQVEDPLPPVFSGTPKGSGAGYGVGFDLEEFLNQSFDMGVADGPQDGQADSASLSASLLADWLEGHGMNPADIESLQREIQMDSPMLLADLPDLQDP
Chain of MINK1 (Q8N4C8 whole entry): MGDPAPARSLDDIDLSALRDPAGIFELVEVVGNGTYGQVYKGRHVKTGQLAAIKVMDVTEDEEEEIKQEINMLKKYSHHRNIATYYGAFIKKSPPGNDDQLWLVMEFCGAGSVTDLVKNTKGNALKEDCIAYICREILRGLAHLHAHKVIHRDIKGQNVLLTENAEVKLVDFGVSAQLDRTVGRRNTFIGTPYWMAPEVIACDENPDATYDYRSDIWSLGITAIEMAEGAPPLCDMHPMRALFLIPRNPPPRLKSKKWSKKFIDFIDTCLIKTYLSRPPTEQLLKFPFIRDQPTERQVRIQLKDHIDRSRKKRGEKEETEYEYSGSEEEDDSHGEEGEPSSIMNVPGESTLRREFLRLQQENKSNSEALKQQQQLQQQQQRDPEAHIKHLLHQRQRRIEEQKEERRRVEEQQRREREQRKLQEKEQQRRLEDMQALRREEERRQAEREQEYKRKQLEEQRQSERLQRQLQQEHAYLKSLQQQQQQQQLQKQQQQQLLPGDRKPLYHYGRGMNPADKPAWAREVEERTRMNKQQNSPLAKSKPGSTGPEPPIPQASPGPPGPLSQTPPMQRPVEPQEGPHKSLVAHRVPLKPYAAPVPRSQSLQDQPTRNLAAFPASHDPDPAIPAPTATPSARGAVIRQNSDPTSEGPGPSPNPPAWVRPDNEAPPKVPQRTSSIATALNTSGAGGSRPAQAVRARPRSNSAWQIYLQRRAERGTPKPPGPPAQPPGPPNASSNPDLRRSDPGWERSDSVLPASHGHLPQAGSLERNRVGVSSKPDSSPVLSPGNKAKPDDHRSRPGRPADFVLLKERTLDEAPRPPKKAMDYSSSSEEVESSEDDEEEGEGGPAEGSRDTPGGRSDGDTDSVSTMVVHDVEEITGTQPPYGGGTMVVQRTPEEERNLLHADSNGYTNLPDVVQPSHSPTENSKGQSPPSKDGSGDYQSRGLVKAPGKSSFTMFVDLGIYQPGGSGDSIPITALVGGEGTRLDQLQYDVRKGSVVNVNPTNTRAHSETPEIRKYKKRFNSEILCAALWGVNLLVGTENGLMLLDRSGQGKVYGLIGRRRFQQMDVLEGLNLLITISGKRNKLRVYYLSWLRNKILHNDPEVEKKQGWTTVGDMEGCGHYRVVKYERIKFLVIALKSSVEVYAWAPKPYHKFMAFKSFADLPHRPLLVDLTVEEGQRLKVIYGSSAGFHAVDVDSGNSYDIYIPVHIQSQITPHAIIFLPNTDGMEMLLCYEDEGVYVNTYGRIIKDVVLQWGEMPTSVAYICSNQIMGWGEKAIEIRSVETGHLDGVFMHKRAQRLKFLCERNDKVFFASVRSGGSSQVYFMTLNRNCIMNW
Chain of HIPK1 (Q86Z02 whole entry): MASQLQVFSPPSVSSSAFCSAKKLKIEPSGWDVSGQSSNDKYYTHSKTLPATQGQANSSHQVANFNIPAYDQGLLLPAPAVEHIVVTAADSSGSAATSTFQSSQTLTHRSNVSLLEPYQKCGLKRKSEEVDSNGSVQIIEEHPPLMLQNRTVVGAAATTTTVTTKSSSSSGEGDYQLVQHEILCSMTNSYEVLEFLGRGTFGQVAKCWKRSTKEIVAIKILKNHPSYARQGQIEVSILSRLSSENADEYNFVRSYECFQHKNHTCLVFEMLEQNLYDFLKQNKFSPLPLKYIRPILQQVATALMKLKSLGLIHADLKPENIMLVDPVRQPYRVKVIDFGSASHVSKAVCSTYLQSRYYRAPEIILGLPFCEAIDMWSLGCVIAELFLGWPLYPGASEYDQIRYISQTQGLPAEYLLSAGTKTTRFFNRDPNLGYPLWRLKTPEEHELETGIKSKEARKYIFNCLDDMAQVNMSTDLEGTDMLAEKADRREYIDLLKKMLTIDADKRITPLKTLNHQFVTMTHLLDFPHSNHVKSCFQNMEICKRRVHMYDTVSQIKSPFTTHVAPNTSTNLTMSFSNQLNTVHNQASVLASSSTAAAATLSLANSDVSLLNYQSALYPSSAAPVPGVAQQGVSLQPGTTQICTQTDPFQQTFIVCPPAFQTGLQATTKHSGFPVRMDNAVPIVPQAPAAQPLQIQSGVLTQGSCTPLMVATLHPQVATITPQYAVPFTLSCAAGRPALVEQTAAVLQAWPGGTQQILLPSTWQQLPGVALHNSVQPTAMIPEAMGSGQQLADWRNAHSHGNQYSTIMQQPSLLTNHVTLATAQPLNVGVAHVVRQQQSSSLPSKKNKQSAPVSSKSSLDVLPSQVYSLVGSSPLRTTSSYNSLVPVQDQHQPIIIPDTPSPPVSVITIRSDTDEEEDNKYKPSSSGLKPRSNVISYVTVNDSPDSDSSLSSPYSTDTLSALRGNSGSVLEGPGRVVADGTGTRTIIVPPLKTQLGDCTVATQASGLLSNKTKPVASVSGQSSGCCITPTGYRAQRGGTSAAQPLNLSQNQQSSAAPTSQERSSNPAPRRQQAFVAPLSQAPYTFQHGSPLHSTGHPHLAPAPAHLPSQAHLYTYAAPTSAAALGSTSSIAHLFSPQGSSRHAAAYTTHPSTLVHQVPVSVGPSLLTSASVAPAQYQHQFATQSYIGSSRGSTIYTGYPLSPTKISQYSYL

| Structure (SMILES) | Transcription of CREB-dependent genes IL-10, Nurr77 and c-FOS [1] | remaining activity at 0.1 µM (ERK5) [%] | remaining activity at 1 µM (ERK5) [%] | remaining activity at 0.1 µM (HIPK1) [%] | remaining activity at 1 µM (HIPK1) [%] | remaining activity at 0.1 µM (IRAK4) [%] | remaining activity at 1 µM (IRAK4) [%] | remaining activity at 0.1 µM (LKB1) [%] | remaining activity at 1 µM (LKB1) [%] | remaining activity at 0.1 µM (MARK1) [%] | remaining activity at 1 µM (MARK1) [%] | remaining activity at 0.1 µM (MINK1) [%] | remaining activity at 1 µM (MINK1) [%] | remaining activity at 0.1 µM (PRAK) [%] | remaining activity at 1 µM (PRAK) [%] | remaining activity at 0.1 µM (SIK2) [%] | remaining activity at 1 µM (SIK2) [%] |
| --- | --- | --- | --- | --- | --- | --- | --- | --- | --- | --- | --- | --- | --- | --- | --- | --- | --- |
| Cc1nc(Nc2ncc(C(=O)Nc3c(C)cccc3Cl)s2)cc(N2CCN(CCO)CC2)n1 [Dasatinib] | elevated the transcription | 87 ± 2 | 91 ± 4 | 105 ± 4 | 122 ± 6 | 112 ± 24 | 102 ± 6 | 96 ± 18 | 100 ± 14 | 115 ± 3 | 127 ± 3 | 90 ± 4 | 51 ± 1 | 129 ± 14 | 128 ± 7 | 4 ± 1 | 2 ± 1 |
| COc1cc(Nc2c(C#N)cnc3cc(OCCCN4CCN(C)CC4)c(OC)cc23)c(Cl)cc1Cl [Bosutinib, bosutinib] | elevated the transcription | 74 ± 6 | 67 ± 10 | 95 | 57 | 55 ± 3 | 23 | 84 ± 13 | 104 ± 15 | 84 ± 5 | 76 ± 4 | 5 ± 1 | 1 | 97 ± 2 | 125 ± 1 | 8 | 3 |
